Measured values as given in patent US6436428B1, “Device and method for treating urinary incontinence in females” (Enhance Pharmaceuticals, Inc., priority 2000, dated 2002).

Tests used:
[1] = Plasma oxybutynin and desethyloxybutynin in rabbits with vaginal inserts; format: in vivo, rabbit; details: for plasma values at all time periods (day 1-7): 5.0 mg/day vaginal insert; for plasma concentration: days 1-7
Method: 12 rabbits were separated into 4 groups of 3 rabbits each. Under pentobarbital anesthesia (25 mg/kg, iv) A cylinder-shaped, curved silastic insert was placed in the vagina of each rabbit. This was accomplished by the following: a midline laparotomy was performed and after transvaginal insertion the implant was anchored with a single 2.0 silk suture through the outer vaginal wall and knotted to a 1 cm section of a medical-grade tubing to avoid damage to the vaginal wall. The inserts in group one contained vehicle, the inserts in groups 2-4 were calculated to release oxybutynin at rates of 0.5 mg/day; 1 mg/day; and 5 mg/day respectively. The inserts remained in place for 7 days. Samples of blood (2 ml) were collected at 12:00 noon on days 1, 3, 5 and 7. After the last blood sample was obtained, each rabbit was sedated and cystometries were performed. Immediately after the cystometry, the rabbit was euthanized, the lower urinary tract including the vagina was removed and evaluated for irritation. In addition, the bladder was excised and weighed.
The samples of blood were frozen and subsequently analyzed. The oxybutynin and desethyloxybutynin concentrations were quantified.

[2] = oral administration of oxybutynin; cited from earlier work

| SMILES | change of plasma concentration between day 1 and 3 ([1]; 0.5 mg/day vaginal insert) | plasma concentration course between days 3 and 7 ([1]; 0.5 mg/day vaginal insert) | change of plasma concentration between day 1 and 3 ([1]; 1.0 mg/day vaginal insert) | plasma concentration course between days 3 and 7 ([1]; 1.0 mg/day vaginal insert) | plasma values at all time periods (day 1-7) [1] | stable plasma concentration of 1.0 mg/day group relative to 0.5 mg/day group ([1]; vaginal inserts, FIG. 18) | stable plasma concentration of 5.0 mg/day group relative to 1.0 mg/day group ([1]; vaginal inserts, FIG. 18) | plasma concentration ([1]; 0.5 mg/day vaginal insert) | plasma concentration ([1]; 1.0 mg/day vaginal insert) | AUC (area under the plasma time concentration curve) of the metabolite relative to oxybutynin [2] | peak blood concentration of the metabolite relative to oxybutynin [2] |
| --- | --- | --- | --- | --- | --- | --- | --- | --- | --- | --- | --- |
| CCN(CC)CC#CCOC(=O)C(O)(c1ccccc1)C1CCCCC1 (stereo not drawn) [oxybutynin, 4-diethylamino-2-butynylphenylcyclohexylglycolate] | increase | stable concentration | increase | stable concentration | stable plasma values | approximately twice | approximately 4 fold | – | – | – | – |
| CCNCC#CCOC(=O)C(O)(c1ccccc1)C1CCCCC1 (stereo not drawn) [N-desethyloxybutynin] | – | – | – | – | stable plasma values | – | – | below the level of detection | below the level of detection | 10-12 times | 6-9 times higher |
